This is an account of results in ChEMBL document CHEMBL1122784, “Antitumor imidazotetrazines. 1. Synthesis and chemistry of 8-carbamoyl-3-(2-chloroethyl)imidazo[5,1-d]-1,2,3,5-tetrazin-4(3 H)-one , a novel broad-spectrum antitumor agent” (J Med Chem, 1984).

Common to all, as to type: ADME
A short description of data set [1]: Half-life period in 95% ethanol in dark at 28 degrees celsius.
A short description of data set [2]: Half-life period in 95% ethanol in diffuse laboratory light at 28 degrees celsius.
Data set [3] is described as follows: Half-life period in phosphate buffer at pH 7.4 in the dark at 28 degrees celsius.
The nature of data set [4]: Half-life period in 95% ethanol in diffuse laboratory light at 28 degrees celsius.

For `NC(=O)c1ncn2c(=O)n(-c3ccc([N+](=O)[O-])cc3)nnc12`, in data set [1], the half-life – broadly, how long it takes for the measured level to halve – was less than 1 min.
`CCOc1ccc(-n2nnc3c(C(N)=O)ncn3c2=O)cc1`: the half-life in data set [2] worked out at 8 min; in data set [1], 78 min.
For `COc1ccc(-n2nnc3c(C(N)=O)ncn3c2=O)cc1`, the results for the half-life in data set [2], in data set [1] and in data set [3] were 8.5 min, 69 min and 155 min, respectively.
As for `NC(=O)c1ncn2c(=O)n(-c3ccccc3)nnc12`, the figures for the half-life in data set [2] and in data set [1] were 9 min and 23 min, respectively.
As to `NC(=O)c1ncn2c(=O)n(-c3cccc4ccccc34)nnc12`, in data set [1], the half-life is 4.6 min.
Consider `Cc1ccc(-n2nnc3c(C(N)=O)ncn3c2=O)cc1`, for which the results for the half-life in data set [2] and in data set [1] were 7.5 min and 40 min, respectively.
Regarding `CCCn1nnc2c(C(N)=O)ncn2c1=O`, the half-life in data set [2] and in data set [1] was 155 min in each case.
As for `N#Cc1cccc(-n2nnc3c(C(N)=O)ncn3c2=O)c1`, in data set [1], the half-life is 2.6 min.
As to `NC(=O)c1ncn2c(=O)n(-c3ccc(Cl)cc3)nnc12`, the half-life in data set [2] is 8.2 min; in data set [1], 6.3 min; in data set [3], 2.9 min.
Take `Cn1nnc2c(C(N)=O)ncn2c1=O` [TEMOZOLOMIDE]: the half-life in data set [4] and in data set [1] was 495 min in each case.
